# US5767269A, “Processes for the preparation of low-affinity, low molecular weight heparins useful as antithrombotics” (Hamilton Civic Hospitals Research Development Inc., priority 1996, dated 1998)
# What was measured:
# [1] = test system: surface-bound thrombin; assay: Extracorporeal recirculation circuit: clotting of the filter in recalcified human whole blood; settings: concentrations which prolong the thrombin clotting time to over 500 seconds (10 to 20 U/ml)
# Protocol: The circuit consists of Tygon tubing (3/16"×1/16") connected to a 40 micron transfusion filter (Pall SQ40S). The system includes 3-way stopcocks for blood sampling. A surgical pressure transducer connected to a pressure recorder (Hewlett-Packard) is connected in line with the filter so that clotting of the filter causes a steady increase in pressure. Citrated whole blood taken from normal, healthy volunteers is used. The circuit is filled with 50 ml of whole blood placed in a reservoir and kept in a waterbath maintained at 37° C. The anticoagulant to be tested is added to the circuit, clotting is initiated by recalcification (0.8 ml of 1.0M CaCl2), and the blood is recirculated at a constant flow rate through the thrombogenic surface using a roller head pump (Cole-Parmer MFLX modular drive with a large F/6 roll head cartridge). Thrombosis of the filter is monitored by a change in pressure in a gauge inserted into the circuit, proximal to the filter. […]
# The inactivation of surface-bound thrombin and fluid-phase thrombin can be measured simultaneously using this system. More particularly, inactivation of surface-bound thrombin is quantified by recording the delay in clotting of the circuit. […] Inactivation of fluid phase thrombin is quantified by recording the thrombin clotting time of plasma prepared from blood removed from the circuit just before recalcification.
# [2] = test system: fluid-phase thrombin; assay: Thrombin clotting time of plasma from blood of the extracorporeal circuit; assay type: biochemical, human
# Source text: The inactivation of surface-bound thrombin and fluid-phase thrombin can be measured simultaneously using this system. More particularly, inactivation of surface-bound thrombin is quantified by recording the delay in clotting of the circuit. This delay is contributed to, albeit to a lesser extent, by the inactivating effect of the anticoagulant on fluid phase thrombin, whose generation is potentiated by the clot-bound thrombin. Inactivation of fluid phase thrombin is quantified by recording the thrombin clotting time of plasma prepared from blood removed from the circuit just before recalcification.
substance,measurement,setting,value
Hirudin,prevention of thrombosis in the circuit compared with LA-LMWH,[1],much less effective at preventing thrombosis in the circuit
same,TCT,[2]; 10 U/mL (Table 3),> 500 s
same,TCT,[2]; 20 U/ml (Table 3),> 500 s
